Experimental data from PMC7118123, “Evidence for functional selectivity in TUDC- and norUDCA-induced signal transduction via α5β1 integrin towards choleresis” (Scientific Reports, 2020).

Biological target: T1, α5β1 integrin (Homo sapiens, UniProt P05556+P08648)
T1 construct: gene ITGA5; soluble human α5β1-integrin (R&D); with integrin α5 (ITGA5, P08648)
Test: competitive ELISA-like solid-phase binding assay against immobilized fibronectin

`C[C@H](CCC(=O)NCCS(=O)(=O)O)[C@H]1CC[C@H]2[C@@H]3[C@@H](O)C[C@@H]4C[C@H](O)CC[C@]4(C)[C@H]3CC[C@]12C` [TUDC] was tested. Which IC50 did it give?
Its IC50 is 4.01 mM.

`C[C@H](CC(=O)O)[C@H]1CC[C@H]2[C@@H]3C(O)C[C@@H]4C[C@H](O)CC[C@]4(C)[C@H]3CC[C@]12C` (some centres unmarked) [norUDCA] was tested. Which IC50 did it give?
Its IC50 is 3.93 mM.
